Measurements published in PubChem BioAssay (NCI).
Where “and” joins values, the source holds several entries; their conditions need not be identical. Identical values can stand only once.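 Values below derive from 48-hour exposures of cells grown in 96-well plates, with endpoints linearly interpolated between the two concentrations bracketing the appropriate inhibition level. GI50 is the concentration that inhibits growth by half. At the TGI there is no net growth.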

How the values were obtained:
Experiment in all cases: NCI-60 cell line screen, 48 h
ACHN renal = system: ACHN renal
CAKI-1 renal = system: CAKI-1 renal
SNB-19 CNS = system: SNB-19 CNS
RXF 393 renal = system: RXF 393 renal
HCC-2998 colon = system: HCC-2998 colon
M14 melanoma = system: M14 melanoma
CCRF-CEM leukemia = system: CCRF-CEM leukemia
LOX IMVI melanoma = system: LOX IMVI melanoma
HCT-116 colon = system: HCT-116 colon
MDA-MB-435 = system: MDA-MB-435

Row | SMILES | TGI (ACHN renal) | TGI (CAKI-1 renal) [µM] | TGI (SNB-19 CNS) | TGI (RXF 393 renal) | TGI (HCC-2998 colon) [µM] | TGI (M14 melanoma) [µM] | TGI (CCRF-CEM leukemia) [µM] | TGI (LOX IMVI melanoma) [µM] | TGI (HCT-116 colon) | GI50 (ACHN renal) [µM] | GI50 (CAKI-1 renal) [µM] | GI50 (SNB-19 CNS) [µM] | GI50 (RXF 393 renal) [µM] | GI50 (HCC-2998 colon) [µM] | GI50 (M14 melanoma) [µM] | GI50 (CCRF-CEM leukemia) [µM] | GI50 (LOX IMVI melanoma) [µM] | GI50 (HCT-116 colon) [µM] | GI50 (MDA-MB-435) [µM] | TGI (MDA-MB-435) [µM]
1 | Cc1ccc(-c2c(N)nc(NC#N)nc2CCC(=O)Nc2ccccc2[N+](=O)[O-])cc1 | > 100 µM | > 100 | > 100 µM | > 100 µM | > 100 | > 100 | > 100 | > 100 | > 100 µM |  |  |  |  |  |  |  |  |  |  | 
2 | COc1c(C2CC(=O)Nc3c2cnn3Cc2ccco2)cc2c(c1OC)OCO2 (stereo not given) | > 100 µM | > 100 | > 100 µM | > 19.7 µM | > 28.4 | > 100 | > 100 | > 100 | > 100 µM | 0.833 | 0.517 | > 100 | 0.35 | 1.1 | 0.408 | 0.597 | 0.864 | 0.457 |  | 
3 | O=C1NC2(CCCC2)C(=O)C12CCCC2 | > 100 µM | > 100 | > 100 µM | > 100 µM |  | > 100 | > 100 | > 100 | > 100 µM |  |  |  |  |  |  |  |  |  |  | 
4 | O=C(c1cccs1)c1c(C(F)(F)F)n([O-])c2ccccc2[n+]1=O | 1.09 µM | 2.36 | 13.2 µM |  | 1.3 | 1.58 | 13.1 | 1.12 | 1.07 µM | 0.417 | 1 | 5.67 |  | 0.663 | 0.771 | 6.69 | 0.448 | 0.41 | 1.15 | 3.5
5 | C=CC1=CSNN1 | > 100 µM | > 100 | > 100 µM | > 100 µM | > 100 | > 100 | > 100 | > 100 | > 100 µM |  |  |  |  |  |  |  |  |  |  | 
6 | C1COCCN1.C1COCCN1.N.N.[Cl-].[Pt+2] |  | > 100 | > 100 µM | > 100 µM | > 100 | > 100 |  | > 100 | > 100 µM |  | 54.1 | > 100 | > 100 | > 100 | > 100 |  | > 100 | > 100 |  | 
7 | CCOC(=O)C1=C(C)Nc2ccccc2S1 | > 100 µM | > 100 | > 100 µM | > 100 µM | > 100 | > 100 | > 100 | > 100 | > 100 µM |  |  |  |  |  |  |  |  |  |  | 
8 | CSc1nc(SC)c2c(CN=[N+]=[N-])c(Br)n(Cc3ccccc3)c2n1 | > 100 µM | > 100 | > 100 µM |  | > 100 | > 100 | > 100 | > 100 | > 100 µM |  |  |  |  |  |  |  |  |  |  | > 100
9 | CSC1=NC=CCN1C | > 100 µM | > 100 | > 100 µM |  | > 100 | > 100 | > 100 | > 100 | > 100 µM |  |  |  |  |  |  |  |  |  |  | 
10 | CC(=O)OC1=C2CC3(C)OC(=O)CC(C)(C)C3=CC=C2C=C(C(C)C)C1=O (stereo not given) | 1.76 µM | 3.18 | 3.28 µM | 0.347 µM | 2.15 | 0.912 | 1.02 | 0.425 | 1.35 µM |  |  |  |  |  |  |  |  |  |  | 
11 | C=CCSC[C@H](NC(=O)COc1ccccc1)C(=O)NC(C(=O)OCc1ccc([N+](=O)[O-])cc1)=C(C)C | > 100 µM |  |  | > 100 µM | > 100 | > 100 | > 100 | > 100 | > 100 µM |  |  |  |  |  |  |  |  |  |  | 
12 | Cn1cc(NC(=O)c2cc(NC(=O)CCCCCCCCCCC(=O)Nc3cc(C(=O)Nc4cc(C(=O)NCCC(=N)N)n(C)c4)n(C)c3)cn2C)cc1C(=O)NCCC(=N)N | > 100 µM | > 100 | > 100 µM | 77.5 µM | 73.6 | > 100 | > 100 | > 100 | > 100 µM |  |  |  |  |  |  |  |  |  |  | 
13 | O=c1[nH]c2ccccc2cc1C(Cl)=C(Cl)Cl | > 100 µM | > 100 | > 100 µM | > 100 µM | > 100 | > 100 | > 100 | > 100 | > 100 µM |  |  |  |  |  |  |  |  |  |  | 
14 | N#CC1(c2nc3ccccc3o2)C(=O)C(=O)N(C2C3CC4CC(C3)CC2C4)C(=O)C1=O (stereo not given) | > 100 µM | > 100 | > 100 µM | > 100 µM | > 100 | > 100 | > 100 | > 100 | > 100 µM |  |  |  |  |  |  |  |  |  |  | 
15 | Nc1n[nH]c2ccc([C@@H]3Nc4ccc5[nH]ncc5c4[C@H]4[C@H]5CCC(C5)[C@H]43)cc12 | > 72 µM | 24.7 | > 100 µM |  | 11.6 | > 40.7 | > 100 | 14.5 | > 100 µM | 0.895 | 0.436 | 0.515 |  | 0.381 | 0.293 | 0.383 | 0.7 | 0.404 |  | 
16 | C#CCNC(=O)NC(CCCNC(=O)OCc1ccccc1)C(=O)OCc1ccccc1 (stereo not given) | > 100 µM | 87.5 | > 100 µM | 95.2 µM | > 100 | 50.6 | > 100 | > 100 | > 100 µM |  |  |  |  |  |  |  |  |  |  | 
17 | COc1ccc2cc1Oc1ccc(cc1)C[C@H]1c3cc(c(OC)cc3CCN1C)Oc1c(OC)c(OC)cc3c1[C@H](C2)N(C)CC3 | 15.4 µM and 27.2 µM and 40 µM |  | 13 µM and 20.1 µM and 60.6 µM | 12.1 µM and 6.61 µM | 8.65 |  |  |  | 11.1 µM and 14.9 µM and > 100 µM |  |  | 7.55 | 1.97 |  |  |  |  | 3.8 |  | 
18 | COc1ccc(C(=O)Nc2ncc(Cc3ccc(Cl)cc3)s2)cc1 | > 100 µM | > 73.1 | > 100 µM | 0.927 µM | 12.7 | > 100 | > 100 | > 100 | > 100 µM | 0.0603 | 0.0471 | 0.0897 | 0.048 | 0.166 | 0.0422 | 0.046 | 0.0628 | 0.0509 |  | 
19 | Cc1ccccc1C(C#N)C(=O)C(=O)Nc1nc([N+](=O)[O-])cs1 (stereo not given) | > 100 µM | > 100 | > 100 µM | > 100 µM | > 100 | > 100 |  | > 100 | > 100 µM |  |  |  |  |  |  |  |  |  |  | 
20 | CCOc1ccc(NC(=O)CC2Sc3ccccc3NC2=O)cc1 (stereo not given) | > 100 µM | > 100 | > 100 µM |  | > 100 | > 100 | > 100 |  | 76.2 µM |  |  |  |  |  |  |  |  |  |  | 
21 | O=C(/C=C/c1ccc(Cl)cc1)c1ccc(Cl)cc1Cl | 10.9 µM | 15.7 | 29.5 µM |  |  | 24.2 |  | 5.62 | 33.5 µM | 0.213 | 8.22 | 13.3 |  |  | 10.9 |  | 1.15 | 4.74 | 9.11 | 24.3
22 | O=[N+]([O-])[C@@H]1C2C=CC(C2)[C@H]1Cl (stereo not given in full) | > 100 µM | > 100 | > 100 µM | > 100 µM |  | > 100 | > 100 | > 100 | > 100 µM |  |  |  |  |  |  |  |  |  |  | 
23 | C[C@@H]1CC[C@H]2C(COCC3=C(C(F)(F)F)O[C@@H]4O[C@@]5(C)CC[C@H]6[C@H](C)CC[C@@H]3[C@@]46OO5)=C(C(F)(F)F)O[C@@H]3O[C@@]4(C)CC[C@@H]1[C@]32OO4 | > 100 µM | > 100 |  |  |  |  | > 100 |  | > 100 µM | 0.028 | 0.205 |  |  |  |  | < 0.0284 |  | < 0.01 | < 0.0108 | > 100
24 | O=C(C#Cc1c[nH]c(=O)[nH]c1=O)c1ccccc1Cl | 33.1 µM | 31.3 | > 100 µM | 14.7 µM | 30.8 | 28.8 | 59.8 | 26.7 | 30.9 µM |  |  |  |  |  |  |  |  |  |  | 
25 | CN(C)/C(=N/C(=S)Nc1ccccc1)SCc1ccccc1 | > 100 µM | > 100 | > 100 µM | > 100 µM | > 100 | > 100 | > 100 | > 100 |  |  |  |  |  |  |  |  |  |  |  | 
26 | COc1cc2c(c3c1C=CCO3)C(=O)c1ccccc1C2=O | > 100 µM |  | > 100 µM | > 100 µM | > 100 | > 100 | 66.4 | 78.6 | > 100 µM |  |  |  |  |  |  |  |  |  |  | 
27 | CCOC(=O)CC1=Nc2ccccc2SC1 | > 100 µM | > 100 | > 100 µM | > 100 µM | > 100 | > 100 |  | > 100 | > 100 µM |  |  |  |  |  |  |  |  |  |  | 
28 | CCCCCCCCCCCCC(=O)OC(c1cnco1)c1nc(C(O)CC(O)C(O)C(C)O)co1 (stereo not given) | > 71.9 µM | > 55.3 | > 100 µM | 64.2 µM | > 100 | > 63.8 | > 61.5 | > 42.4 | > 100 µM | 6.38 | 4.96 |  | 0.486 | 1.68 | 0.794 | 0.838 | 0.735 | 0.459 |  | 
29 | FC(F)(F)c1nc(-c2ccccc2Cl)[nH]c1C(F)(F)F | 2.65 µM | 1.65 | 8.27 µM | 2.69 µM |  | 4.83 | 1.6 | 1.23 | 2.15 µM |  |  |  |  |  |  |  |  |  |  | 
30 | Cc1cc2c(cc1C)[n+](=O)c(C(=O)C/C(=N/NC(=O)c1ccccc1O)C(=O)Nc1ccccc1C(C)C)c(C)n2[O-] | > 100 µM | > 100 | > 100 µM | > 100 µM | > 100 | > 100 | 94.1 | > 100 | > 100 µM |  |  |  |  |  |  |  |  |  |  | 
